Laboratory results from patent US11939361B2, “Compositions of peptide inhibitors of Interleukin-23 receptor” (Janssen Pharmaceutica NV, priority 2020, dated 2024).
Where two headings read alike, the source gives them in different places.

Experiments:
[1] = test system: IL-23 induced expression of IL-17A, IL-17F, and IL-22; experiment: Rat skin gene expression downstream of intradermal IL-23; type: in vivo, Sprague-Dawley rats
Procedure: Ear inflammation was induced in Sprague-Dawley rats by daily intradermal injection of recombinant rat IL-23 on study days 0-3. Treatment with the peptide of SEQ ID NO: 1 (dose response by oral gavage; 1, 3, 10, 30, 100, and 300 mg/kg, twice a day) was initiated prophylactically starting one day prior to and continued through day 3 after induction of inflammation. All rats were humanely euthanized on day 4. An anti-IL-23 monoclonal antibody (administered intraperitoneally on days −1 and day 3) was included in all studies as a positive control and comparator.
Test article was dissolved into phosphate buffer at the appropriate concentrations and aliquoted for each dose and stored at 4° C. Retentions of each dose formulation were obtained after the initial preparation and following the final dose on day 3 into Eppendorf tubes and stored at −80° C. for bioanalysis of test article by LCMS.
Recombinant rat IL-23 was diluted with PBS to a concentration of 75 μg/mL, divided into 2.0 mL aliquots, and stored at −80° C. Daily from day 0 through day 3, rats were anesthetized with isoflurane and IL-23 was intradermally injected (i.d.) into the right ear (1.5 μg in a volume of 20 μL). In the control group, 20 μL of PBS was injected.
Starting the morning prior to IL-23 injection through the evening of day 3, rats were dosed with either vehicle (phosphate buffer) or the peptide of SEQ ID NO: 1 compound twice daily (approximately 10 hours apart between doses during the day) by oral gavage (p.o.) in a volume of 5 mL/kg. In one experiment, the peptide of SEQ ID NO: 1 was also administered subcutaneously (s.c.) in a volume of 5 mL/kg.
Anti-IL-23p19 antibody or isotype antibody was administered via intraperitoneal injection (i.p.) in a volume of 5 mL/kg on days −1 and 3.
At the end of the study, four days after induction with IL-23 (approximately 16 hours after the evening dose on day 3), animals were euthanized by CO2 asphyxiation. The ear tissue was weighed, snap frozen, and stored at −80° C. for gene expression analysis of inflammatory genes (IL-22, IL-17A, IL-17F, TNF). […]

[2] = in vivo
[3] = Colon and colonic content concentrations in rat TNBS colitis model (LC-MS/MS); type: in vivo, Sprague Dawley rats; conditions: Sprague Dawley, po
Procedure: […] In all studies, the peptide of SEQ ID NO: 1 was dosed starting 2 days prior to TNBS induction through day 6, with euthanasia scheduled on day 7.
At the end of each study, colonic content and colon tissue samples were collected from each animal and analyzed for drug concentrations by LC-MS/MS.

[4] = test system: IL-23 induced phosphorylation of STAT3; experiment: Ex vivo whole blood phosphorylation of STAT3 assay, FIH 25 mg MAD cohort; type: in vivo; conditions: human, 25 mg oral once a day, 3 subjects, 100 ng/mL IL-23
Procedure: An ex vivo whole blood IL-23 induced STAT3 phosphorylation assay was also used to evaluate the systemic pharmacodynamic activity of the orally administered peptide of SEQ ID NO: 1 in the first-in-human study. This proximal IL-23R signaling assay was performed by analyzing IL-23 induced phosphorylation of STAT3 using a flow cytometer. Assay was implemented in the 25 mg MAD cohort, at multiple timepoints on Day 1 and Day 10, where healthy volunteers were given placebo or 25 mg of peptide of SEQ ID NO: 1 orally once a day for 10 consecutive days. On Days 1 and 10, when the assay was performed, subjects received their dose of placebo or peptide of SEQ ID NO: 1 following an overnight fast of approximately 10 hours and remained fasted for approximately 4 hours following dosing. […] Therefore, lower STAT3 phosphorylation as readout by the assay is associated with sufficient exposure to achieve systemic pharmacodynamic activity of orally dosed peptide of SEQ ID NO: 1. Since there is no dilution of blood required, and the readout is more proximal than IFNγ production, and the response is measured in the specific subset of immune cells that respond to IL-23, the pSTAT3 assay is a more sensitive pharmacodynamic readout than IFNγ. […]

CC(=O)NCCCC[C@@H]1NC(=O)[C@H](Cc2c[nH]c3c(C)cccc23)NC(=O)[C@H]([C@@H](C)O)NC(=O)[C@H](CC(N)=O)NC(=O)[C@@H](NC(C)=O)C(C)(C)SSC(C)(C)[C@@H](C(=O)N[C@@H](Cc2ccc(OCCN)cc2)C(=O)N[C@@H](Cc2ccc3ccccc3c2)C(=O)NC2(C(=O)N[C@@H](CCC(=O)O)C(=O)N[C@@H](CC(N)=O)C(=O)N[C@@H](Cc3cccnc3)C(=O)N(C)CC(N)=O)CCOCC2)NC1=O [SEQ ID NO: 1, Ac-[Pen]*—N-T-[W(7-Me)]-[Lys(Ac)]-[Pen]*-Phe[4-(2-aminoethoxy)]-[2-Nal]-[THP]-E-N-[3-Pal]-Sarc-NH2]
median IL-17A expression in skin ([1]; all tested doses (1-300 mg/kg b.i.d., oral)): reduced | reduction of median IL-17A expression in skin ([1]; doses of 10 mg/kg (b.i.d.) or higher): comparable degree as anti-IL-23 antibody | IL-23 induced expression of IL-17A, IL-17F, and IL-22 in skin ([1]; oral, 1-300 mg/kg b.i.d., days -1 to 3, dose dependent): attenuated | mean accumulation for AUC ([2]; human): 13-50% | Systemic exposure (Cmax and AUC) versus dose [2]: approximately dose-proportional | tissue level at time at 168 h ([3]; colon content, 0.033 mg/kg, Study 3, 0.033 mg/kg TID oral, total daily dose 0.1 mg/kg, read-out: Mean concentration in Colon content): 567 ng/g | tissue level at time at 168 h ([3]; colon content, 0.1 mg/kg, Study 2, 0.1 mg/kg TID oral, total daily dose 0.3 mg/kg, read-out: Mean concentration in Colon content): 1990 ng/g | tissue level at time at 168 h ([3]; colon content, 0.1 mg/kg, Study 3, 0.1 mg/kg TID oral, total daily dose 0.3 mg/kg, read-out: Mean concentration in Colon content): 3180 ng/g | tissue level at time at 168 h ([3]; colon content, 0.33 mg/kg, Study 2, 0.33 mg/kg TID oral, total daily dose 1 mg/kg, read-out: Mean concentration in Colon content): 7440 ng/g | tissue level at time at 168 h ([3]; colon content, 0.33 mg/kg, Study 3, 0.33 mg/kg TID oral, total daily dose 1 mg/kg, read-out: Mean concentration in Colon content): 6050 ng/g | tissue level at time at 168 h ([3]; colon content, 0.5 mg/kg, Study 2, 0.5 mg/kg BID oral, total daily dose 1 mg/kg, read-out: Mean concentration in Colon content): 11200 ng/g | tissue level at time at 168 h ([3]; colon content, 1 mg/kg, Study 2, 1 mg/kg QD oral, total daily dose 1 mg/kg, read-out: Mean concentration in Colon content): 11700 ng/g | tissue level at time at 168 h ([3]; colon content, 1 mg/kg, Study 2, 1 mg/kg TID oral, total daily dose 3 mg/kg, read-out: Mean concentration in Colon content): 22200 ng/g | tissue level at time at 168 h ([3]; colon content, 1 mg/kg, Study 3, 1 mg/kg TID oral, total daily dose 3 mg/kg, read-out: Mean concentration in Colon content): 20800 ng/g | tissue level at time at 168 h ([3]; colon content, 3.3 mg/kg, Study 2, 3.3 mg/kg TID oral, total daily dose 10 mg/kg, read-out: Mean concentration in Colon content): 73500 ng/g | tissue level at time at 168 h ([3]; colon, 0.1 mg/kg, Study 3, 0.1 mg/kg TID oral, total daily dose 0.3 mg/kg, read-out: Mean concentration in Colon): 44.4 ng/g | tissue level at time at 168 h ([3]; colon, 0.33 mg/kg, Study 3, 0.33 mg/kg TID oral, total daily dose 1 mg/kg, read-out: Mean concentration in Colon): 158 ng/g | tissue level at time at 168 h ([3]; colon, 1 mg/kg, Study 3, 1 mg/kg TID oral, total daily dose 3 mg/kg, read-out: Mean concentration in Colon): 509 ng/g | inhibition of STAT3 phosphorylation in memory CD26high CD4+ T cells, memory CD26high CD8+ T cells and CD26high NKT cells [4]: near-complete inhibition
